Consider 32 compounds from patent US20220235011A1, “PHTHALAZINONE COMPOUNDS AND USE THEREOF” (ST PHARM CO., LTD., priority 2019, published 2022).

The target in one assay is T1, Sirt6 (Homo sapiens, UniProt Q8N6T7).
T1 construct: purchased CycLex CY-1156V2
T1 sequence (Q8N6T7 whole entry): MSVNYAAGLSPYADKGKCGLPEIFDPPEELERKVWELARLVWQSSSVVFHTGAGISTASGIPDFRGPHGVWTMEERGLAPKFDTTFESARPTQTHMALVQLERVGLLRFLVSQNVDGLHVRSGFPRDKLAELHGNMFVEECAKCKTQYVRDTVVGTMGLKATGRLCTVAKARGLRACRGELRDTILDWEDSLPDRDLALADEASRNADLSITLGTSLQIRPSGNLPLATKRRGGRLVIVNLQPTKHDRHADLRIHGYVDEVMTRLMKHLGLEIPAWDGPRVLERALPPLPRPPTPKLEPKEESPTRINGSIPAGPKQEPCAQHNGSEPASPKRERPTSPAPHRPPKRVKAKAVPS
Description: Measurement of Sirt6 Activity (CycLex Sirt6 Deacetylase Fluorometric Assay Kit). The following applies: compound at 10 μM; fluorescence relative to the group without compound treatment (positive control group). In kind it is biochemical. The gist of the method: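 Recombinant Sirt6 with fluoro-labelled acetyl-lysine peptide, NAD and lysylendopeptidase developer, compound added from 10× stock in PBS; 1 h at room temperature. Fluorescence read at ex 490/em 530 nm; activation expressed as fluorescence ratio relative to enzyme without compound.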
Turning to `CCS(=O)(=O)N(C)c1cccc(-c2nn(-c3ccc(-c4ccccc4)cc3)c(=O)c3ccccc23)c1` [Example 65, N-(3-(3-([1,1′-Biphenyl]-4-yl)-4-oxo-3,4-dihydrophthalazin-1-yl)phenyl)-N-methylethanesulfonamide], the “Sirt6 Activity (% activity, 10 μM)” value was 96 % activity.

Consider `CN(C)S(=O)(=O)c1cccc(-c2nn(-c3ccc(F)cc3F)c(=O)c3ccccc23)c1` [Example 93, 3-(3-(2,4-Difluorophenyl)-4-oxo-3,4-dihydrophthalazin-1-yl)-N,N-dimethylbenzene Sulfonamide], for which the “Sirt6 Activity (% activity, 10 μM)” value was 227 % activity.

On to `CN(C)S(=O)(=O)c1cccc(-c2nn(-c3ccccc3F)c(=O)c3ccccc23)c1` [Example 101, 3-(3-(2-Fluorophenyl)-4-oxo-3,4-dihydrophthalazin-1-yl)-N,N-dimethylbenzene Sulfonamide], for which the “Sirt6 Activity (% activity, 10 μM)” value is recorded as 153 % activity.

As for `CS(=O)(=O)c1cccc(-c2nn(-c3ccc(F)cc3F)c(=O)c3ccccc23)c1` [Example 89, 2-(2,4-Difluorophenyl)-4-(3-(methylsulfonyl)phenyl)phthalazin-1 (2H)-one], the “Sirt6 Activity (% activity, 10 μM)” value is 339 % activity.

With `CNS(=O)(=O)c1cccc(-c2nn(-c3c(F)cccc3F)c(=O)c3ccccc23)c1` [Example 107, 3-(3-(2,6-Difluorophenyl)-4-oxo-3,4-dihydrophthalazin-1-yl)-N-methylbenzenesulfonamide], the “Sirt6 Activity (% activity, 10 μM)” value worked out at 233 % activity.

With `CCS(=O)(=O)N[C@H]1CCCN(c2nn(C3CCCCC3)c(=O)c3ccccc23)C1` [Example 147, (S)—N-(1-(3-Cyclohexyl-4-oxo-3,4-dihydrophthalazin-1-yl)piperidin-3-yl)ethanesulfonamide], the “Sirt6 Activity (% activity, 10 μM)” value is recorded as 127.7 % activity.

Regarding `CC(C)/[N+]([O-])=C/c1cc(-c2nn(-c3ccc(F)cc3)c(=O)c3ccccc23)ccc1F` [Example 52, (Z)-1-(2-Fluoro-5-(3-(4-fluorophenyl)-4-oxo-3,4-dihydrophthalazin-1-yl)phenyl)-N-isopropylmethanimine Oxide], the “Sirt6 Activity (% activity, 10 μM)” value was 172 % activity.

Regarding `CC(C)(/C(N)=N\O)c1cccc(-c2nn(-c3ccc(F)cc3F)c(=O)c3ccccc23)c1` [Example 170, (E)-2-(3-(3-(2,4-Difluorophenyl)-4-oxo-3,4-dihydrophthalazin-1-yl)phenyl)-N′-hydroxy-2-methyl propanimideamide], the “Sirt6 Activity (% activity, 10 μM)” value is 262.7 % activity.

In the case of `Nc1cccc(-c2nn(-c3ccc(F)cc3F)c(=O)c3ccccc23)c1` [Example 24, 4-(3-Aminophenyl)-2-(2,4-difluorophenyl)phthalazin-1(2H)-one], the “Sirt6 Activity (% activity, 10 μM)” value was 147 % activity.

As to `CC(C)(C(=O)N1CCOCC1)c1cccc(-c2nn(-c3ccc(F)cc3F)c(=O)c3ccccc23)c1` [Example 179, 2-(2,4-Difluorophenyl)-4-(3-(2-methyl-1-morpholino-1-oxopropan-2-yl)phenyl)phthalazin-1(2H)-one], the “Sirt6 Activity (% activity, 10 μM)” value was 221.60 % activity.

For `Cl.NC1CCCN(c2nn(-c3ccc(F)cc3)c(=O)c3ccccc23)C1` (centres unmarked) [Example 134, 4-(3-Aminopiperidin-1-yl)-2-(4-fluorophenyl)phthalazin-1(2H)-one-hydrochloride], the “Sirt6 Activity (% activity, 10 μM)” value was 167.53 % activity.

Take `CN(C)S(=O)(=O)c1cccc(-c2nn(-c3ccc(F)cc3F)c(=O)c3ccc(F)cc23)c1` [Example 125, 3-(3-(2,4-Difluorophenyl)-7-fluoro-4-oxo-3,4-dihydrophthalazin-1-yl)-N,N-dimethylbenzenesulfonamide]: the “Sirt6 Activity (% activity, 10 μM)” value is 172 % activity.

As for `C/[N+]([O-])=C/c1cc(-c2nn(-c3ccc(F)cc3)c(=O)c3ccccc23)ccc1F` [Example 51, (Z)-1-(2-Fluoro-5-(3-(4-fluorophenyl)-4-oxo-3,4-dihydrophthalazin-1-yl)phenyl)-N-methylmethanimine Oxide], the “Sirt6 Activity (% activity, 10 μM)” value is 139 % activity.

Regarding `CC(C)/[N+]([O-])=C/c1ccc(-c2nn(-c3ccc(F)cc3)c(=O)c3ccccc23)s1` [Example 46, (Z)-1-(5-(3-(4-Fluorophenyl)-4-oxo-3,4-dihydrophthalazin-1-yl)thiophen-2-yl)-N-isopropylmethanimine Oxide], the “Sirt6 Activity (% activity, 10 μM)” value is on record as 154 % activity.

For `CC(C)(C)/[N+]([O-])=C/c1cccc(-c2nn(-c3cccc(F)c3)c(=O)c3ccccc23)c1` [Example 29, (Z)—N-tert-Butyl-1-(3-(3-(3-fluorophenyl)-4-oxo-3,4-dihydrophthalazin-1-yl)phenyl)methanimine Oxide], the “Sirt6 Activity (% activity, 10 μM)” value stood at 162 % activity.

For the compound `C/[N+]([O-])=C/c1ccc(-c2nn(-c3ccc(F)cc3)c(=O)c3ccccc23)s1` [Example 45, (Z)-1-(5-(3-(4-Fluorophenyl)-4-oxo-3,4-dihydrophthalazin-1-yl)thiophen-2-yl)-N-methylmethanimine Oxide], the “Sirt6 Activity (% activity, 10 μM)” value was found to be 195 % activity.

`CC(C)(C(=O)O)C1CN(c2nn(-c3ccc(F)cc3F)c(=O)c3ccccc23)CCN1` (centres unmarked) [Example 219, 2-(4-(3-(2,4-Difluorophenyl)-4-oxo-3,4-dihydrophthalazin-1-yl)piperazin-2-yl)-2-methylpropanoic Acid]: the “Sirt6 Activity (% activity, 10 μM)” value came to 114.60 % activity.

`CCS(=O)(=O)Nc1cccc(-c2nn(-c3ccc(C(F)(F)F)cc3)c(=O)c3ccccc23)c1` [Example 3, N-(3-(4-Oxo-3-(4-(trifluoromethyl)phenyl)-3,4-dihydrophthalazin-1-yl)phenyl)ethanesulfonamide]: the “Sirt6 Activity (% activity, 10 μM)” value worked out at 104 % activity.

On to `COc1ccc(-c2nn(-c3ccc(F)cc3)c(=O)c3ccccc23)cc1/C=[N+](\[O-])Cc1ccccc1` [Example 50, (Z)—N-Benzyl-1-(5-(3-(4-fluorophenyl)-4-oxo-3,4-dihydrophthalazin-1-yl)-2-methoxyphenyl)methanimine Oxide], for which the “Sirt6 Activity (% activity, 10 μM)” value amounted to 105 % activity.

In the case of `Cl.N[C@@H]1CCCCN(c2nn(-c3ccc(Cl)cc3F)c(=O)c3ccccc23)C1` [Example 202, (R)-4-(3-Aminoazepan-1-yl)-2-(4-chloro-2-fluorophenyl)phthalazin-1-(2H)-one-hydrochloride], the “Sirt6 Activity (% activity, 10 μM)” value worked out at 261.73 % activity.

`CS(=O)(=O)N(c1cc(-c2nn(-c3ccccc3)c(=O)c3ccccc23)ccc1Cl)S(C)(=O)=O` [Example 18, N-(2-Chloro-5-(4-oxo-3-phenyl-3,4-dihydrophthalazin-1-yl)phenyl)-N-(methylsulfonyl)methane-sulfonamide]: the “Sirt6 Activity (% activity, 10 μM)” value is listed as 114 % activity.

For the compound `CCS(=O)(=O)Nc1cccc(-c2nn(C3CCCCC3)c(=O)c3ccccc23)c1` [Example 128, N-(3-(3-Cyclohexyl-4-oxo-3,4-dihydrophthalazin-1-yl)phenyl)ethanesulfonamide], the “Sirt6 Activity (% activity, 10 μM)” value came out at 177.53 % activity.

Regarding `O=c1c2ccccc2c(N2CCCCC(O)C2)nn1-c1ccc(F)cc1F` (centres unmarked) [Example 190, 2-(2,4-Difluorophenyl)-4-(3-hydroxyazepan-1-yl)phthalazin-1(2H)-one], the “Sirt6 Activity (% activity, 10 μM)” value worked out at 332.60 % activity.

Consider `CC(C)(C#N)c1cccc(-c2nn(-c3ccc(F)cc3F)c(=O)c3ccccc23)c1` [Example 168, 2-(3-(3-(2,4-Difluorophenyl)-4-oxo-3,4-dihydrophthalazin-1-yl)phenyl)-2-methylpropanenitrile], for which the “Sirt6 Activity (% activity, 10 μM)” value turned out to be 155.7 % activity.

With `CC(C)(C)/[N+]([O-])=C/c1cc(-c2nn(-c3ccc(F)cc3)c(=O)c3ccccc23)ccc1F` [Example 53, (Z)—N-tert-Butyl-1-(2-fluoro-5-(3-(4-fluorophenyl)-4-oxo-3,4-dihydrophthalazin-1-yl)phenyl) Methanimine Oxide], the “Sirt6 Activity (% activity, 10 μM)” value amounted to 172 % activity.

Turning to `Cn1cc(NC(=O)C(C)(C)c2cccc(-c3nn(-c4ccc(F)cc4F)c(=O)c4ccccc34)c2)cn1` [Example 182, 2-(3-(3-(2,4-Difluorophenyl)-4-oxo-3,4-dihydrophthalazin-1-yl)phenyl)-2-methyl-N-(1-methyl-1H-pyrazol-4-yl)propanamide], the “Sirt6 Activity (% activity, 10 μM)” value worked out at 219.60 % activity.

On to `CC(C)(C(=O)O)c1cccc(-c2nn(-c3ccc(C4CC4)cc3)c(=O)c3ccccc23)c1` [Example 206, 2-(3-(3-(4-Cyclopropylphenyl)-4-oxo-3,4-dihydrophthalazin-1-yl)phenyl)-2-methylpropanoic Acid], for which the “Sirt6 Activity (% activity, 10 μM)” value was 182.70 % activity.

For `C/[N+]([O-])=C/c1cccc(-c2nn(-c3cccc(F)c3)c(=O)c3ccccc23)c1` [Example 27, (Z)-1-(3-(3-(3-Fluorophenyl)-4-oxo-3,4-dihydrophthalazin-1-yl)phenyl)-N-methylmethanimine Oxide], the “Sirt6 Activity (% activity, 10 μM)” value is on record as 148 % activity.

As to `O=c1c2ccccc2c(-c2cccnc2)nn1-c1ccc(F)cc1F` [Example 115, 2-(2,4-Difluorophenyl)-4-(pyridin-3-yl)phthalazin-1(2H)-one], the “Sirt6 Activity (% activity, 10 μM)” value is recorded as 405 % activity.

On to `N#Cc1cccc(-c2nn(-c3ccc(F)cc3)c(=O)c3ccccc23)c1` [Example 130, 3-(3-(4-Fluorophenyl)-4-oxo-3,4-dihydrophthalazin-1-yl)benzonitrile], for which the “Sirt6 Activity (% activity, 10 μM)” value is 120.16 % activity.

In the case of `CCN(C)S(=O)(=O)c1cccc(-c2nn(-c3ccc(F)cc3F)c(=O)c3ccccc23)c1` [Example 216, 3-(3-(2,4-Difluorophenyl)-4-oxo-3,4-dihydrophthalazin-1-yl)-N-ethyl-N-methylbenzenesulfonamide], the “Sirt6 Activity (% activity, 10 μM)” value was determined as 184.80 % activity.

Still in this assay, the particulars now being: compound at 10 μM; fluorescence relative to the group without compound treatment (positive control group); 10 µM.
`CC(C)/[N+]([O-])=C/c1cccc(-c2nn(-c3ccc(F)cc3)c(=O)c3ccccc23)c1` [Example 37, (Z)-1-(3-(3-(4-Fluorophenyl)-4-oxo-3,4-dihydrophthalazin-1-yl)phenyl)-N-isopropyl methanimine Oxide]: the “Sirt6 Activity (% activity, 10 μM)” value turned out to be 126 % activity.
